Test results: patent US5270322A, “Imidazo[1,2-a]pyridines, pharmaceutical compositions containing these compounds and processes for preparing them” (Dr. Karl Thomae GmbH, priority 1992, dated 1993)

molecular target: T1, Angiotensin II-Receptor (Rattus norvegicus, UniProt P25095); assay: Angiotensin II-Receptor Bonding; type: binding; details: rats lung homogenate; 50 pM [125I]-angiotensin II; 60 minutes at 37° C.; pH 7.40
T1 construct: The tissue (rats lung) is homogenised in Tris-buffer; from tissue; host or cells: rat lung homogenate
T1 sequence (P25095 1-359): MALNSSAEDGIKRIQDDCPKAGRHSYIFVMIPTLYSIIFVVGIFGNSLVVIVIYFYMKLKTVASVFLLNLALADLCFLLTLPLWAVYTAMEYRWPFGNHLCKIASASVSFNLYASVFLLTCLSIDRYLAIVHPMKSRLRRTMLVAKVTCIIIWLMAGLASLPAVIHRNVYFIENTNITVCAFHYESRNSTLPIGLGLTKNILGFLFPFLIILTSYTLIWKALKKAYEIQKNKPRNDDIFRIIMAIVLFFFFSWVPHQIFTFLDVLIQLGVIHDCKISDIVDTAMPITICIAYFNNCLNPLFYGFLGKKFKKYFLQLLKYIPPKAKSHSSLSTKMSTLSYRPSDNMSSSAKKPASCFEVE
Procedure: Description of Method: Angiotensin II-Receptor Bonding
The tissue (rats lung) is homogenised in Tris-buffer (50 mMol Tris, 150 mMol NaCl, 5 mMol EDTA, pH 7.40) and centrifuged twice for 20 minutes at 20,000×g. The finished pellets are resuspended in incubating buffer [, (50 mMol Tris, 5 mMol MgC12, 0.2% BSA, pH 7.40) 1:75, based on the moist weight of the tissue. Each 0.1 ml of homogenate is incubated for 60 minutes at 37° C. with 50 pM [^125 I]-angiotensin II (NEN, Dreieich, FRG) with increasing concentrations of the test substance in a total volume of 0.25 ml. Incubation is ended by rapid filtration through glass fibre filter mats. The filters are each washed with 4 ml of ice cold buffer (25 mMol Tris, 2.5 mMol MgCl2, 0.1% BSA, pH 7.40). The bound radioactivity is measured using a gamma-counter. The corresponding IC50 value is obtained from the dose-activity curve.

Row | Structure (SMILES) | IC50 [nM]
1 | CCc1cn2c(C(O)c3ccc(-c4ccccc4C(=O)O)cc3)ccc(C)c2n1 (racemic) [Substance A, (R,S)-2-ethyl-8-methyl-5-[α-(2'-carboxybiphenyl-4-yl)-α-hydroxy-methyl]imidazo[1,2-a]pyridine] | 46
2 | CCc1cn2c(C(OC(C)=O)c3ccc(-c4ccccc4C(=O)O)cc3)ccc(C)c2n1 (racemic) [Substance B, (R,S)-2-ethyl-8-methyl-5-[α-(2'-carboxybiphenyl-4-yl)-α-acetoxy-methyl]imidazo[1,2-a]pyridine] | 30
3 | CCc1cn2c(C(OC(=O)NC3CCCCC3)c3ccc(-c4ccccc4C(=O)O)cc3)ccc(C)c2n1 (racemic) [Substance C, (R,S)-2-Ethyl-8-methyl-5-[α-(2'-carboxybiphenyl-4-yl)-α-cyclohexylaminocarbonyloxy-methyl]imidazo[1,2-a]pyridine] | 230
4 | CCCc1cn2c(C(O)c3ccc(-c4ccccc4C(=O)O)cc3)ccc(C)c2n1 (racemic) [Substance D, (R,S)-2-n-Propyl-8-methyl-5-[α-(2'-carboxybiphenyl-4-yl)-α-hydroxy-methyl]imidazo[1,2-a]pyridine-hydrate] | 420
